According to the CheMixHub viscosity set:
Where “and” joins values, the source holds several entries; their conditions need not be identical. Equal entries are not always repeated. ± gives the uncertainty stated by the source.

CN(C)P(=O)(N(C)C)N(C)C
Conditions	viscosity [mPa·s]
303.15 K, 101.3 kPa	2.928 ± 0.077

CC(N)CN (stereo not given)
viscosity
Conditions	293.15 K	298.15 K	303.15 K	308.15 K	313.15 K	318.15 K	323.15 K
101 kPa	–	1.481 ± 0.027 mPa·s	1.314 ± 0.024 mPa·s and 1.325 ± 0.016 mPa·s	1.175 ± 0.022 mPa·s and 1.192 ± 0.014 mPa·s	1.058 ± 0.02 mPa·s and 1.084 ± 0.013 mPa·s	0.9597 ± 0.018 mPa·s and 0.9891 ± 0.012 mPa·s	0.9091 ± 0.011 mPa·s
101.33 kPa	1.61 ± 0.07 mPa·s	1.49 ± 0.06 mPa·s and 1.47 ± 0.05 mPa·s	1.31 ± 0.05 mPa·s and 1.34 ± 0.04 mPa·s	1.19 ± 0.05 mPa·s and 1.13 ± 0.04 mPa·s	1.06 ± 0.04 mPa·s and 1.06 ± 0.03 mPa·s	0.96 ± 0.04 mPa·s and 0.97 ± 0.03 mPa·s	–

CCC(C)C(C)C (stereo not given)
Conditions	viscosity [mPa·s]
298.15 K, 101.33 kPa	0.3898 ± 0.0037

CCCCCCCCC
viscosity
Conditions	298.15 K	303.15 K	308.15 K	313.15 K	318.15 K	323.15 K
100 kPa	0.668 ± 0.027 mPa·s	0.627 ± 0.025 mPa·s	–	0.556 ± 0.023 mPa·s	0.526 ± 0.021 mPa·s	0.498 ± 0.02 mPa·s
101 kPa	0.6626 ± 0.0066 mPa·s and 0.6588 ± 0.0084 mPa·s and 0.668 ± 0.013 mPa·s	0.641 ± 0.007 mPa·s	0.5808 ± 0.0074 mPa·s and 0.588 ± 0.012 mPa·s and 0.5974 ± 0.0085 mPa·s	0.5652 ± 0.0084 mPa·s	0.512 ± 0.0066 mPa·s	0.5073 ± 0.0082 mPa·s
101.33 kPa	–	–	–	0.535 ± 0.015 mPa·s	0.505 ± 0.014 mPa·s	–

CCN(CCO)CCO
101 kPa
Conditions	viscosity [mPa·s]
303.15 K	48.27 ± 0.7
308.15 K	36.72 ± 0.57
313.15 K	28.36 ± 0.43
318.15 K	22.31 ± 0.33
323.15 K	17.78 ± 0.28

CCC(O)CC
viscosity [mPa·s]
Conditions	293.15 K	298.15 K	303.15 K	308.15 K	313.15 K	318.15 K	323.15 K
101 kPa	4.646 ± 0.12	4.81 ± 0.044	3.506 ± 0.11	2.773 ± 0.085	2.23 ± 0.069	1.895 ± 0.06	1.528 ± 0.049
101.33 kPa	–	–	3.852 ± 0.051	–	2.272 ± 0.03	–	1.543 ± 0.021

Cc1cccc(C)n1
viscosity
Conditions	101 kPa	101.33 kPa
293.15 K	–	0.8373 ± 0.0067 mPa·s
295.15 K	0.929 ± 0.04 mPa·s	–
298.15 K	0.8777 ± 0.015 mPa·s	0.7813 ± 0.0063 mPa·s
298.2 K	0.806 ± 0.013 mPa·s	–
300.12 K	–	0.847 ± 0.007 mPa·s
303 K	0.7635 ± 0.0091 mPa·s	–
303.12 K	–	0.833 ± 0.007 mPa·s
303.24 K	0.753 ± 0.012 mPa·s	–
306.99 K	–	0.774 ± 0.006 mPa·s
308.15 K	–	0.6861 ± 0.0055 mPa·s
308.26 K	0.708 ± 0.011 mPa·s	–
313 K	0.6811 ± 0.0081 mPa·s and 0.6687 ± 0.008 mPa·s	–
313.34 K	0.663 ± 0.01 mPa·s	–
318.15 K	–	0.6032 ± 0.0048 mPa·s
318.39 K	0.627 ± 0.01 mPa·s	–
323 K	0.6095 ± 0.0073 mPa·s and 0.5945 ± 0.0072 mPa·s	–

CCCOCCC
Conditions	viscosity [mPa·s]
298.15 K, 101.33 kPa	0.4024 ± 0.0044
